Measurements from US20140206608A1 (priority 2012, published 2014).
Values after ≈ are worked out from the molar mass of the structure shown. Like-named read-outs stand apart in the source and are kept apart here. *1 amine or outer side, *2 acyl side, *3 side chain or, on linkers, in order; H or OH if unused. Where a SMILES comes first, the peptide text is derived from it. Side-chain parts run from the residue outwards. [ ]: non-standard residue; d: D form. The star is where a group is joined. γGlu = O=C(O)[C@H](CCC(=O)[*:2])N[*:1]; Stearoyl = CCCCCCCCCCCCCCCCCC(=O)*; Aib = CC(C)(N)C(=O)O

Experiments:
[1] = tested on: trypsin; assay: Enzymatic stability testing versus trypsin; type: in vitro ADME; details: human, human recombinant trypsin, pH 8.3; % of degradation after 120 min; 2 μM peptide, 37° C.; read-out: Lability versus enzymatic degradation, Trypsin
Method: (§1) The reaction was stopped by addition of ethanol. The samples were analyzed by LC-MS/MS. […] The metabolic lability is given as % of degradation.

[2] = tested on: female NMRI-mice; assay: Gastric emptying and intestinal passage in female NMRI-mice; type: in vivo
Method: Female NMRI-mice of a body weight between 20 and 30 g were used. Mice were adapted to housing conditions for at least one week.
Mice were overnight fasted, while water remained available all the time. On the study day, mice were weighed, single-caged and allowed access to 500 mg of feed for 30 min, while water was removed. At the end of the 30 min feeding period, remaining feed was removed and weighed. Then, the test compound/reference compound or its vehicle in the control group was administered subcutaneously. 60 min later, to allow the compound to reach relevant plasma exposure, a coloured, non-caloric bolus was instilled via gavage into the stomach. After another 30 min, the animals were sacrificed and the stomach and the small intestine prepared. The filled stomach was weighed, emptied, carefully cleaned and dried and reweighed. The stomach content, calculated as weight of filled subtracted by the weight of emptied stomach, indicated the degree of gastric emptying. The small intestine was straightened without force and measured in length. Then the distance from the gastric beginning of the gut to the tip of the farthest travelled intestinal content bolus was measured. The intestinal passage was given as ratio in percent of the latter distance and the total length of the small intestine.
Statistical analyses were performed with Everstat 6.0 by 1-way-ANOVA, followed by Dunnett's as post-hoc test. Dunnett's Test was applied to compare versus vehicle control. Differences were considered statistically significant at the p<0.05 level.
30 min later, the assessment of stomach contents and intestinal passage was done (FIG. 8).

[3] = tested on: female NMRI-mice; assay: Automated assessment of 22-hours feed intake in female NMRI-mice; type: in vivo
Method: Female NMRI-mice of a body weight between 20 and 30 g were used. Mice were adapted to housing conditions for at least one week and for at least one day single-caged in the assessment equipment, when basal data were recorded simultaneously. On the study day, test product was administered subcutaneously close to the lights-off phase (12 h lights off) and assessment of feed consumption was directly started afterwards. Assessment included continued monitoring over 22 hours, while data are processed as mean over every 30 min. Repetition of this procedure over several days was possible. Restriction of assessment to 22 hours was for practical reasons to allow for reweighing of animals, refilling of feed and water and drug administration between procedures. Results could be assessed as cumulated data over 22 hours or differentiated to 30 min intervals.
Statistical analyses were performed with Everstat 6.0 by two-way ANOVA on repeated measures and Dunnett's post-hoc analyses. Differences were considered statistically significant at the p<0.05 level.
Lights-off phase (dark phase) started 4 hours later.

[4] = tested on: α-chymotrypsin; assay: Enzymatic stability testing versus α-chymotrypsin; type: in vitro ADME; details: human, human recombinant α-chymotrypsin, pH 8.3; % of degradation after 120 min; 2 μM peptide, 37° C.; read-out: Lability versus enzymatic degradation, α-Chymotrypsin
Method: as §1

[5] = biological target: neprilysin (Homo sapiens, UniProt P08473); assay: in vitro; details: human recombinant neprilysin, pH 7.5
Method: In the experiment, GLP-1 was used as a positive control. The incubation was started by addition of the enzyme fraction to the pre-warmed buffer solution. […] The reaction was stopped by addition of ethanol. The samples were analyzed by LC-MS/MS. The percentage of biotransformation was measured by extent of depletion of the test compound in mass spectrometry. Therefore the peak area of the MRM ion signal of the 0h time point (100%) versus the incubated time points was measured. The metabolic lability is given as % of degradation.

[6] = in vivo; details: mouse, plasma, sc, 1 mg/kg
Method: Mice were dosed 1 mg/kg subcutaneously (s.c.). The mice were sacrificed and blood samples were collected after 0.25, 0.5, 1, 2, 4, 8, 16 and 24 hours post application. Plasma samples were analyzed after protein precipitation via liquid chromatography mass spectrometry (LC/MS). PK parameters and half-life were calculated using WinonLin Version 5.2.1 (non-compartment model).

[7] = Solubility testing in buffer systems (HPLC-UV); type: physicochemical; details: buffer system, target concentration 1.0 mg/mL
[8] = Chemical stability in solution, 7 days at 25° C. (% remaining peptide); type: physicochemical; details: % remaining peptide after 7 days at 25° C.
Source text: The chemical stability is expressed as “% remaining peptide”.

[9] = biological target: T1, human glucagon receptor (hGLUC R) (Homo sapiens, UniProt P47871); assay: cAMP response of HEK-293 cells stably expressing human glucagon receptor (HTRF); type: cell-based; details: EC50 hGLUC R, Table 7; cAMP formation
T1 construct: expressed in transfected cells; host or cells: HEK-293
Method: (§2) cAMP content of cells was determined using a kit from Cisbio Corp. (cat. no. 62AM4PEC) based on HTRF (Homogenous Time Resolved Fluorescence). For preparation, cells were split into T175 culture flasks and grown overnight to near confluency in medium (DMEM/10% FBS). Medium was then removed and cells washed with PBS lacking calcium and magnesium, followed by proteinase treatment with accutase (Sigma-Aldrich cat. no. A6964). Detached cells were washed and resuspended in assay buffer (1×HBSS; 20 mM HEPES, 0.1% BSA, 2 mM IBMX) and cellular density determined. They were then diluted to 400000 cells/ml and 25 μl-aliquots dispensed into the wells of 96-well plates. For measurement, 25 μl of test compound in assay buffer was added to the wells, followed by incubation for 30 minutes at room temperature.

[10] = tested on: plasmin; assay: Enzymatic stability testing versus plasmin; type: in vitro ADME; details: human, human recombinant plasmin, pH 8.3; % of degradation after 120 min; 2 μM peptide, 37° C.; read-out: Lability versus enzymatic degradation, Plasmin
Method: as §1

[11] = biological target: T2, human GLP-1 receptor (hGLP-1 R) (Homo sapiens, UniProt P43220); assay: cAMP response of HEK-293 cells stably expressing human GLP-1 receptor (HTRF); type: cell-based; details: EC50 hGLP-1 R, Table 7; cAMP formation
T2 construct: expressed in transfected cells; host or cells: HEK-293
Method: as §2

Chain of neprilysin (P08473 whole entry): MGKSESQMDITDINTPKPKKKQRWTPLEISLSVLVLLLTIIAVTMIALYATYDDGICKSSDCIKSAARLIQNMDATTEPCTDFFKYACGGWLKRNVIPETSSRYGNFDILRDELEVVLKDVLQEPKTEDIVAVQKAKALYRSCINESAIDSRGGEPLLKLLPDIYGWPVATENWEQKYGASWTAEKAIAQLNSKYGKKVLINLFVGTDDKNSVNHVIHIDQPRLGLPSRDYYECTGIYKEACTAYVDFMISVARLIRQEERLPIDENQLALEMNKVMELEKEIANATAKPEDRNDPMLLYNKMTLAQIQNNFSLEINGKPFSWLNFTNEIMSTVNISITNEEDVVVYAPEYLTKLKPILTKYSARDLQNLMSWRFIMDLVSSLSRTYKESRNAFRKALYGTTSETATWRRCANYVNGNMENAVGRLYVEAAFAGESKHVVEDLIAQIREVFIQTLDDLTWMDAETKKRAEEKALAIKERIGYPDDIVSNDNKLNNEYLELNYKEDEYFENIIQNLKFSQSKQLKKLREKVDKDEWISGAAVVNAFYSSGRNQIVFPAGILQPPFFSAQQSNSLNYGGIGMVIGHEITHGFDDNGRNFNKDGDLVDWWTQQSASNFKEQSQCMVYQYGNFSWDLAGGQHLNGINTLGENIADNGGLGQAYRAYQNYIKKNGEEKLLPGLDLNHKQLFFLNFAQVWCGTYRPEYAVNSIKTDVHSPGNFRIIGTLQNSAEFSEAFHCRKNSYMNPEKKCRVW
T1 sequence (P47871 26-477): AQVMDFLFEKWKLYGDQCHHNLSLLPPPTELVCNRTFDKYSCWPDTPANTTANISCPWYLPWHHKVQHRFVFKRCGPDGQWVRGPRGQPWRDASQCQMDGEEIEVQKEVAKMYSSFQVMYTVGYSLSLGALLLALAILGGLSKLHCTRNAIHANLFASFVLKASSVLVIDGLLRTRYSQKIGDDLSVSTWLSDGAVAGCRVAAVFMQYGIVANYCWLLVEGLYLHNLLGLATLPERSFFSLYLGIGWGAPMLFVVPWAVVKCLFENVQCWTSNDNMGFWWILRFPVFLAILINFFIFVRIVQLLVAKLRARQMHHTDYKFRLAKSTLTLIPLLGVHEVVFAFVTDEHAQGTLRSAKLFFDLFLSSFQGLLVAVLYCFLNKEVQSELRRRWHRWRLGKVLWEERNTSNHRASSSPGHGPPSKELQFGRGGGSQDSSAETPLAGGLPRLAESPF
T2 sequence (P43220 24-463): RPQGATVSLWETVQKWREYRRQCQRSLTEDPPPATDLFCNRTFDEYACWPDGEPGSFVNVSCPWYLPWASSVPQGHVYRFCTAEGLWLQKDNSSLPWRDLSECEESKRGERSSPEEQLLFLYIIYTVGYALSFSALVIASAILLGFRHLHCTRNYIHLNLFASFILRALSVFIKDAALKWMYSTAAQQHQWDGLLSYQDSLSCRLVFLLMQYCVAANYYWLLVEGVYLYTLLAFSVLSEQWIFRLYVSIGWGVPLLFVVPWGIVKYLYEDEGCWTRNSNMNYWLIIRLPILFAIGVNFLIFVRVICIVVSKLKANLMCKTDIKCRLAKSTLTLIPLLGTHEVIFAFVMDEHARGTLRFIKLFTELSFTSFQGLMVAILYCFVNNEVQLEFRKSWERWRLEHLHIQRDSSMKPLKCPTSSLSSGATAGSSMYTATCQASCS

## CCCCCCCCCCCCCCCCCC(=O)N[C@@H](CCC(=O)NCCCC[C@H](NC(=O)[C@H](CCC(N)=O)NC(=O)[C@@H](NC(=O)[C@H](CO)NC(=O)[C@H](CC(C)C)NC(=O)[C@H](CC(=O)O)NC(=O)[C@H](CO)NC(=O)[C@@H](NC(=O)[C@H](Cc1ccccc1)NC(=O)[C@@H](NC(=O)CNC(=O)[C@H](CCC(=O)O)NC(=O)C(C)(C)NC(=O)[C@@H](N)Cc1ccc(O)cc1)[C@@H](C)O)[C@@H](C)O)[C@@H](C)CC)C(=O)N[C@@H](CCC(=O)O)C(=O)N[C@@H](CCC(=O)O)C(=O)N[C@@H](CCC(=O)O)C(=O)N[C@@H](C)C(=O)N[C@H](C(=O)N[C@@H](CCCNC(=N)N)C(=O)N[C@@H](CC(C)C)C(=O)N[C@@H](Cc1ccccc1)C(=O)N[C@H](C(=O)N[C@@H](CCC(=O)O)C(=O)N[C@@H](Cc1c[nH]c2ccccc12)C(=O)N[C@@H](CC(C)C)C(=O)N[C@@H](CCCCN)C(=O)N[C@@H](C)C(=O)NCC(=O)NCC(=O)N1CCC[C@H]1C(=O)N[C@@H](CO)C(=O)N[C@@H](CO)C(=O)NCC(=O)N[C@@H](C)C(=O)N1CCC[C@H]1C(=O)N1CCC[C@H]1C(=O)N1CCC[C@H]1C(=O)N[C@@H](CO)C(N)=O)[C@@H](C)CC)C(C)C)C(=O)O [SEQ ID NO: 10, Y-Aib-E-G-T-F-T-S-D-L-S-I-Q-K(γE-x70)-EEEAVRLFIEWLKAGGPSSGAPPPS-NH2] (H-Y[Aib]EGTFTSDLSIQK([γGlu-Stearoyl])EEEAVRLFIEWLKAGGPSSGAPPPS-NH2)
[1]
  metabolised at 2 h, 2 μM: 33%
[2]; 1 μg/kg s.c.
  increase of remaining gastric contents: 1%
  reduction of intestinal passage: 28%
[2]; 10 μg/kg s.c.
  increase of remaining gastric contents: 28%
  reduction of intestinal passage: 58%
[2]; 100 μg/kg s.c.
  increase of remaining gastric contents: 68%
  reduction of intestinal passage: 64%
[3]; 3 μg/kg s.c., not significant, p=0.78
  reduction of feed intake after 22 hours: 19%
[3]; 10 μg/kg s.c., p=0.049
  reduction of feed intake after 22 hours: 34%
[4]
  metabolised at 2 h, 2 μM: 48%
[5]
  metabolised at 2 h, 2 μM: 0%
[6]
  Cmax: 5740 ng/mL
  half-life: 4.3 h
[7]; pH 4.5, read-out: Solubility (pH 4.5)
  solubility at 2 h: 120 µg/mL (≈ 26.3 µM)
[7]; pH 7.4, read-out: Solubility (pH 7.4)
  solubility at 2 h: > 1000 µg/mL
[8]; pH 4.5
  Stability (pH 4.5): 99.0%
[8]; pH 7.4
  Stability (pH 7.4): 97.0%
[9]
  EC50: > 1000 nM
[10]
  metabolised at 2 h, 2 μM: 0%
[11]
  EC50: 0.0125 nM
